Data published in US20250101038A1, “COMPOUNDS” (priority 2021, published 2025).

How the values were obtained:
[1] = target: T1, 5-HT2A receptor (Homo sapiens, UniProt P28223); test: FLIPR Ca2+ flux functional assay, 5-HT2A; assay type: cell-based; conditions: agonist activity, Ca2+ flux, HEK293 cells; for EC50: read-out: 5-HT2A EC50
T1 construct: host or cells: HEK293
Description: Activity at 5-HT2A, 5-HT2B and 5-HT2C receptors was determined using a FLIPR Ca^2+ flux assay at WuXi AppTec Co. Ltd. (Hong Kong) Discovery Biology Unit according to their standard protocols. Briefly, stably transfected cells expressing the receptor of interest (HEK293 for 5-HT2A and 5-HT2C; CHO-K1 for 5-HT2B) were grown and plated in a 384 well plate and incubated at 37° C. and 5% CO2 overnight. A 250 mM stock solution of probenecid in FLIPR calcium assay buffer (10 mL) was freshly prepared and combined with a fluorescent dye (Fluo-4 Direct) to give a final assay concentration of 2.5 mM. Reference compounds were 4-fold serially diluted and the screening compounds were 3-fold serially diluted in 100% DMSO for 10 points using Agilent Bravo, and 750 nL was added to a 384 well compound plate using Echo along with 30 μL assay buffer. The fluorescent dye was then added to the assay plate along with assay buffer to a final volume of […]. The cell plate was incubated for 50 min at 37° C. and 5% CO2 and placed into the FLIPR Tetra along with the compound plate. 10 μL of references and compounds were then transferred from the compound plate into the cell plate and the fluorescent signal was read.

[2] = target: T2, 5-HT2B receptor (Homo sapiens, UniProt P41595); test: cell-based; conditions: agonist activity, Ca2+ flux, CHO-K1 cells; for EC50: read-out: 5-HT2B EC50
T2 construct: host or cells: CHO-K1

[3] = target: T3, 5-HT2C receptor (Homo sapiens, UniProt P28335); test: cell-based; conditions: agonist activity, Ca2+ flux, HEK293 cells; for EC50: read-out: 5-HT2C EC50
T3 construct: host or cells: HEK293
T3 sequence (P28335 33-458): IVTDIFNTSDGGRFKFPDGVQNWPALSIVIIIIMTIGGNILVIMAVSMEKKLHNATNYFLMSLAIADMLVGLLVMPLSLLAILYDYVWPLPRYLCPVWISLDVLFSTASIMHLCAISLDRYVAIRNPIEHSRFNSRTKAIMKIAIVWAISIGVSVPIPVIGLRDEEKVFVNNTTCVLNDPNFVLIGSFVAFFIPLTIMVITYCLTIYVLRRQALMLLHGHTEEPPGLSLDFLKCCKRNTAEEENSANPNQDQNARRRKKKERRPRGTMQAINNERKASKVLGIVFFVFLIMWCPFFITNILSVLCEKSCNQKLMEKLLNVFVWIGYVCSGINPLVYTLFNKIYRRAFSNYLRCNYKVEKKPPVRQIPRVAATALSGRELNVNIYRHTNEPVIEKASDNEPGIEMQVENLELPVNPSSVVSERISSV

T2 sequence (P41595 whole entry): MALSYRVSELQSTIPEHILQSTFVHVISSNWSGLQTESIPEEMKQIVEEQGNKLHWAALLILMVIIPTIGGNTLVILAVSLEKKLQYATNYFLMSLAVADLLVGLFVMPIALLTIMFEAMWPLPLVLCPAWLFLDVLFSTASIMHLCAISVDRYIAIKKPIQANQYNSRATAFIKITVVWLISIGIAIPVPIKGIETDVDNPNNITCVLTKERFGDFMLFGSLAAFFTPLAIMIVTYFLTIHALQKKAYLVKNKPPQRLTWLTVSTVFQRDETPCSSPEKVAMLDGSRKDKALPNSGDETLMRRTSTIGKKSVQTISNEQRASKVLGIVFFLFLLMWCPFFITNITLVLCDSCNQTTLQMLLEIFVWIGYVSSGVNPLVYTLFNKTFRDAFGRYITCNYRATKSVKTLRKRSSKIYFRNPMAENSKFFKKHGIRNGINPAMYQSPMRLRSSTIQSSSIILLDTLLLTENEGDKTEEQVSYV
T1 sequence (P28223 whole entry): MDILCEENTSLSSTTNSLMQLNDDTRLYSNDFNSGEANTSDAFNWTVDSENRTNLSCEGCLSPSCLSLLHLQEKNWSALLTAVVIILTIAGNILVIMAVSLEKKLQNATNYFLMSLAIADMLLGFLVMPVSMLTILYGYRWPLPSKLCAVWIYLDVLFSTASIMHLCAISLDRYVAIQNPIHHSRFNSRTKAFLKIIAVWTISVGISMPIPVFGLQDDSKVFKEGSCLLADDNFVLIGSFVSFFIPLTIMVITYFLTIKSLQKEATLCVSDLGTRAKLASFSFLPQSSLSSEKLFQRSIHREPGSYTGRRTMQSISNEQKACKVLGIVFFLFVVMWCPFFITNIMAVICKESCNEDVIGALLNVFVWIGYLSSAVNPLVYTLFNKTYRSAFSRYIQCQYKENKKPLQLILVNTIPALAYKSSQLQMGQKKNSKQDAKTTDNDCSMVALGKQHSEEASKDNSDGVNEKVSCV

## CC(C)N(C)CCc1c[nH]c2ccc3ocnc3c12 [Example P-128, N-(2-(6H-oxazolo[4,5-e]indol-8-yl)ethyl)-N-methylpropan-2-amine]
[1]
  Emax: 83.8%
  EC50: 14.3 nM
[2]
  Emax: 16.8%
  EC50: > 10000 nM
[3]
  Emax: 58%
  EC50: 67.8 nM

## CCN(CC)CCc1c[nH]c2ccc(F)c(F)c12 [Example P-145, 2-(4,5-difluoro-1H-indol-3-yl)-N,N-diethylethan-1-amine]
[1]
  Emax: 98.5%
  EC50: 10.6 nM
[2]
  Emax: 51.5%
  EC50: 23.3 nM
[3]
  Emax: 72.3%
  EC50: 102 nM

## COc1cc(C)c2[nH]cc(CCN(C(C)C)C(C)C)c2c1 [Example P-58, N-isopropyl-N-(2-(5-methoxy-7-methyl-1H-indol-3-yl)ethyl)propan-2-amine]
[1]
  Emax: 84%
  EC50: 475 nM
[2]
  Emax: 42.8%
  EC50: 604 nM
[3]
  Emax: 85.8%
  EC50: 1700 nM

## CCN(CC)CCc1c[nH]c2c(C)ccc(O)c12 [Example P-88, 3-(2-(diethylamino)ethyl)-7-methyl-1H-indol-4-ol]
[1]
  Emax: 61.1%
  EC50: 189 nM
[2]
  Emax: -0.07%
  EC50: ≥ 10000 nM
[3]
  Emax: 25.4%
  EC50: 1300 nM

## CCN(CC)CCc1c[nH]c2ccc(F)c(OC)c12 [Example P-94, N,N-diethyl-2-(5-fluoro-4-methoxy-1H-indol-3-yl)ethan-1-amine]
[1]
  Emax: 98.1%
  EC50: 11.2 nM
[2]
  Emax: 47.4%
  EC50: 94.2 nM
[3]
  Emax: 58%
  EC50: 131 nM

## CCN(C)CCc1c[nH]c2ccc(C)c(O)c12 [Example P-64, 3-(2-(ethyl(methyl)amino)ethyl)-5-methyl-1H-indol-4-ol]
[1]
  Emax: 79%
  EC50: 62.2 nM
[2]
  Emax: 2.42%
  EC50: ≥ 10000 nM
[3]
  Emax: 61%
  EC50: 141 nM

## COc1cc2c(CCN(C)C)c[nH]c2cc1C [Example P-7, 2-(5-methoxy-6-methyl-1H-indol-3-yl)-N,N-dimethylethan-1-amine]
[1]
  Emax: 81.9%
  EC50: 15.8 nM
[2]
  Emax: 1.71%
  EC50: > 10000 nM
[3]
  Emax: 81.1%
  EC50: 110 nM

## Cc1ccc2[nH]cc(CCN(C)C)c2c1O [Example P-10, 3-(2-(dimethylamino)ethyl)-5-methyl-1H-indol-4-ol]
[1]
  Emax: 63.1%
  EC50: 55.1 nM
[2]
  Emax: -0.21%
  EC50: > 10000 nM
[3]
  Emax: 71.2%
  EC50: 72.8 nM

## CC(C)N(CCc1c[nH]c2ccc(F)c(F)c12)C(C)C [Example P-146, N-(2-(4,5-difluoro-1H-indol-3-yl)ethyl)-N-isopropylpropan-2-amine]
[1]
  Emax: 98.4%
  EC50: 10.1 nM
[2]
  Emax: 155%
  EC50: 21.4 nM
[3]
  Emax: 93.1%
  EC50: 25.4 nM

## CCN(C)CCc1c[nH]c2cc(F)c(F)cc12 [Example P-154, 2-(5,6-difluoro-1H-indol-3-yl)-N-ethyl-N-methylethan-1-amine]
[1]
  Emax: 92.4%
  EC50: 14.8 nM
[2]
  Emax: 17.6%
  EC50: ≥ 10000 nM
[3]
  Emax: 102%
  EC50: 24.9 nM

## CCN(CC)CCc1c[nH]c2c(C)ccc(OC)c12 [Example P-82, N,N-diethyl-2-(4-methoxy-7-methyl-1H-indol-3-yl)ethan-1-amine]
[1]
  Emax: 42.4%
  EC50: 283 nM
[2]
  Emax: 0.89%
  EC50: > 10000 nM
[3]
  Emax: 76.7%
  EC50: 417 nM

## CC(C)N(C)CCc1c[nH]c2cc(F)c(F)cc12 [Example P-155, N-(2-(5,6-difluoro-1H-indol-3-yl)ethyl)-N-methylpropan-2-amine]
[1]
  Emax: 73.4%
  EC50: 10.4 nM
[2]
  Emax: 45.4%
  EC50: ≥ 10000 nM
[3]
  Emax: 83.7%
  EC50: 50.7 nM

## CCCN(CCC)CCc1c[nH]c2c(C)ccc(O)c12 [Example P-89, 3-(2-(dipropylamino)ethyl)-7-methyl-1H-indol-4-ol]
[1]
  Emax: 118%
  EC50: 48.6 nM
[2]
  Emax: 6.63%
  EC50: ≥ 10000 nM
[3]
  Emax: 54.7%
  EC50: 889 nM

## CCN(C)CCc1c[nH]c2c(C)ccc(OC)c12 [Example P-80, N-ethyl-2-(4-methoxy-7-methyl-1H-indol-3-yl)-N-methylethan-1-amine]
[1]
  Emax: 30%
  EC50: 113 nM
[2]
  Emax: 0.74%
  EC50: > 10000 nM
[3]
  Emax: 66.7%
  EC50: 140 nM

## COc1c(C)ccc2[nH]cc(CCN(C)C)c12 [Example P-9, 2-(4-methoxy-5-methyl-1H-indol-3-yl)-N,N-dimethylethan-1-amine]
[1]
  Emax: 65%
  EC50: 24.6 nM
[2]
  Emax: 17.3%
  EC50: > 10000 nM
[3]
  Emax: 80.7%
  EC50: 6.23 nM

## CCCN(CCC)CCc1c[nH]c2ccc(C)c(O)c12 [Example P-68, 3-(2-(dipropylamino)ethyl)-5-methyl-1H-indol-4-ol]
[1]
  Emax: 102%
  EC50: 148 nM
[2]
  Emax: 64.3%
  EC50: ≥ 10000 nM
[3]
  Emax: 78%
  EC50: 871 nM

## COc1ccc(C)c2[nH]cc(CCN(C(C)C)C(C)C)c12 [Example P-83, N-isopropyl-N-(2-(4-methoxy-7-methyl-1H-indol-3-yl)ethyl)propan-2-amine]
[1]
  Emax: 79.2%
  EC50: 619 nM
[2]
  Emax: 30%
  EC50: > 10000 nM
[3]
  Emax: 66.7%
  EC50: 1620 nM

## CC(C)N(CCc1c[nH]c2ccc3ocnc3c12)C(C)C [Example P-130, N-(2-(6H-oxazolo[4,5-e]indol-8-yl)ethyl)-N-isopropylpropan-2-amine]
[1]
  Emax: 87.5%
  EC50: 18.1 nM
[2]
  Emax: 114%
  EC50: 7.54 nM
[3]
  Emax: 104%
  EC50: 203 nM

## CN(C)CCc1c[nH]c2ccc3c(c12)OCC3 [Example P-3, 2-(3,6-dihydro-2H-furo[2,3-e]indol-8-yl)-N,N-dimethylethan-1-amine]
[1]
  Emax: 81%
  EC50: 9.73 nM
[2]
  Emax: 13.8%
  EC50: > 10000 nM
[3]
  Emax: 76.4%
  EC50: 16.2 nM

## COc1ccc(C)c2[nH]cc(CCN(C)C)c12 [Example P-13, 2-(4-methoxy-7-methyl-1H-indol-3-yl)-N,N-dimethylethan-1-amine]
[1]
  Emax: 36.1%
  EC50: 107 nM
[2]
  Emax: 0.67%
  EC50: > 10000 nM
[3]
  Emax: 69.5%
  EC50: 56 nM

## CCN(CC)CCc1c[nH]c2cc(C)c(OC)cc12 [Example P-45, N,N-diethyl-2-(5-methoxy-6-methyl-1H-indol-3-yl)ethan-1-amine]
[1]
  5-HT2A Emax: 81.54%
  EC50: 78.2 nM
[2]
  5-HT2B Emax: 23.83%
  EC50: 846 nM
[3]
  5-HT2C Emax: 84.59%
  EC50: 700 nM

## COc1c(F)ccc2[nH]cc(CCN(C(C)C)C(C)C)c12 [Example P-95, N-(2-(5-fluoro-4-methoxy-1H-indol-3-yl)ethyl)-N-isopropylpropan-2-amine]
[1]
  Emax: 93.2%
  EC50: 20 nM
[2]
  Emax: 96.3%
  EC50: 21.6 nM
[3]
  Emax: 83%
  EC50: 260 nM

## Cc1cc(O)c2c(CCN(C)C)c[nH]c2c1 [Example P-12, 3-(2-(dimethylamino)ethyl)-6-methyl-1H-indol-4-ol]
[1]
  Emax: 67.8%
  EC50: 80.4 nM
[2]
  Emax: 1.23%
  EC50: > 10000 nM
[3]
  Emax: 69.3%
  EC50: 144 nM

## COc1ccc(F)c2[nH]cc(CCN(C)C)c12 [Example P-101, 2-(7-fluoro-4-methoxy-1H-indol-3-yl)-N,N-dimethylethan-1-amine]
[1]
  Emax: 71.6%
  EC50: 3.84 nM
[2]
  Emax: 4.06%
  EC50: > 10000 nM
[3]
  Emax: 53.1%
  EC50: 8.28 nM

## CCN(CC)CCc1c[nH]c2cc(F)cc(OC)c12 [Example P-98, N,N-diethyl-2-(6-fluoro-4-methoxy-1H-indol-3-yl)ethan-1-amine]
[1]
  Emax: 64.3%
  EC50: 16 nM
[2]
  Emax: 63.6%
  EC50: 5430 nM
[3]
  Emax: 71.8%
  EC50: 311 nM

## CN(C)CCc1c[nH]c2cc(F)c(F)cc12 [Example P-153, 2-(5,6-difluoro-1H-indol-3-yl)-N,N-dimethylethan-1-amine]
[1]
  Emax: 74.8%
  EC50: 29.5 nM
[2]
  Emax: 10.6%
  EC50: > 10000 nM
[3]
  Emax: 93.6%
  EC50: 5.35 nM
